Experimental data taken from article PMC11738990, “A small-molecule TNIK inhibitor targets fibrosis in preclinical and clinical models” (Nature Biotechnology, 2024).
“And” between values parts separate entries of the source, which are not always exact repeats. Identical values can stand only once. Like-named read-outs stand apart in the source and are kept apart here.

Columns and labels:
Sprague Dawley rats = experiment: Bleomycin-induced lung fibrosis model, inhalation administration; format: in vivo, rat; details: individual animals, Fig 4
Method: On day 1 of the study, bleomycin hydrochloride was administered to 8–9-week-old Sprague Dawley rats at a final concentration of 1.5 mg ml^−1 in sodium chloride solution (dosed volume at 1.0 ml per kg) by intratracheal atomization (once in the morning and once in the afternoon) to build the pulmonary fibrosis model.
A German PARI compression atomizer (PARI TurboBOY) was set at an aerosol flow rate of 9–10 l min^−1. […] The dilution flow of aerosol was set at 0 l min^−1, and the pumping-out flow from the chamber was set at 6 l min^−1. The fluid rate was set at 0.5 ml min^−1 for test article replenishment. Before nebulization, aerosol-generation conditions were validated three times.
And these parameters were recorded in real time during the experiment.
For concentration assessment, a glass fiber filter membrane (φ = 37 mm) was used to measure aerosol concentrations during drug administration from approximately day 8 to day 28. Sampling was taken at 5 min (±1 min) after drug administration from a random exposure port. […] Aerosol particle size parameters were calculated with the system software: median mass aerodynamic diameter (MMAD), geometric standard deviation, fine particle fraction (percentage of fine particles with MMAD < 5 μm), etc.
On day 29 and before euthanasia, animals were anesthetized with chloral hydrate (90 mg ml^−1, 5 ml per kg, i.p.). Necks were cut longitudinally at the middle to isolate trachea, and a catheter was intubated into the trachea toward the tail direction and fixed with a suture thread. The anesthetized animals were placed into the plethysmography chamber, to which the airway was connected. The AniRes2005 animal lung function-analysis system was used to assess parameters including FVC, airway resistance and pulmonary compliance. The ventilator respiration rate was set to 65 beats per minute; the respiration ratio was set to 20:10; the negative pressure controller was set to 30 cm H2O. FVC detection was set to pressure-control mode, while pressure was set to 30 cm H2O. The startup mode was selected to automatically detect at the end of breath, and the ‘Start’ button was clicked to passively inhale and then turned to exhale after reaching the set pressure value. Next, the ‘Stop’ button was clicked to complete an FVC detection. Each animal was evaluated for FVC at least five times. The final result was the mean value after the maximum and minimum data were excluded for analysis.

A549 cells = details: for E-Cadherin/GAPDH normalized: DMSO=1; for N-Cadherin/GAPDH normalized / Smad2/3/GAPDH normalized / p- Smad2/3/GAPDH normalized / b-catenin/ HDAC2 normalized / b-catenin/ Histone 3 normalized / b-catenin/ tubulin normalized: TGF-β=1; for P65/GAPDH normalized / p-P65/GAPDH normalized: TGF-β+TNF-a=1
[1] = 0.1 μM, TGF-β+TNF-a group, Batch 1
[2] = 0.1 μM, TGF-β+TNF-a group, Batch 2
[3] = 0.1 μM, TGF-β+TNF-a group, Batch 3

## CC(C)n1cnc(-c2ccc(F)cc2)c1-c1nc(C(=O)Nc2ccc(N3CCN(C)CC3)cc2)c[nH]1 [INS018_055, 2-[4-(4-fluorophenyl)-1-(prop-2-yl)imidazol-5-yl]-N-[4-(4-methylhexahydropyrazin-1-yl)phenyl]-1H-imidazole-4-carboxamide]
Sprague Dawley rats; INS018_055 0.1 mg/mL
  Cdyn: 0.2868 mL/cmH2O and 0.282 mL/cmH2O and 0.2528 mL/cmH2O and 0.2276 mL/cmH2O and 0.2464 mL/cmH2O and 0.2949 mL/cmH2O and 0.266 mL/cmH2O and 0.2918 mL/cmH2O and 0.3725 mL/cmH2O
  FVC: 11.667 and 10.372 and 9.331 and 9.408 and 9.013 and 11.225 and 10.246 and 9.406 and 11.458
  MT staining for fibrosis: 39.4049 and 24.0295 and 21.4518 and 29.9242 and 25.5526 and 41.2629 and 23.5476 and 24.3272 and 18.8851
  Modified Ashcroft Score: 3.58 and 3.5 and 3.67 and 4.67
  RL: 0.2183 cmH2O and 0.2228 cmH2O and 0.249 cmH2O and 0.2763 cmH2O and 0.2553 cmH2O and 0.2139 cmH2O and 0.2369 cmH2O and 0.215 cmH2O and 0.1673 cmH2O
Sprague Dawley rats; INS018_055 0.3 mg/mL
  Cdyn: 0.1877 mL/cmH2O and 0.26 mL/cmH2O and 0.28 mL/cmH2O and 0.2261 mL/cmH2O and 0.2364 mL/cmH2O and 0.2626 mL/cmH2O and 0.2848 mL/cmH2O and 0.214 mL/cmH2O and 0.2795 mL/cmH2O
  FVC: 8.356 and 10.531 and 9.955 and 8.979 and 9.285 and 9.684 and 11.437 and 8.52 and 10.758
  MT staining for fibrosis: 37.0531 and 32.9417 and 33.2766 and 28.9122 and 24.8997 and 24.7844 and 23.0018 and 21.403 and 19.6831
  Modified Ashcroft Score: 3.33 and 3.5 and 3.42 and 3.17 and 3.25
  RL: 0.334 cmH2O and 0.2417 cmH2O and 0.2246 cmH2O and 0.2783 cmH2O and 0.266 cmH2O and 0.2397 cmH2O and 0.2213 cmH2O and 0.2931 cmH2O and 0.2253 cmH2O
Sprague Dawley rats; INS018_055 1 mg/mL
  Cdyn: 0.2887 mL/cmH2O and 0.2534 mL/cmH2O and 0.2831 mL/cmH2O and 0.2977 mL/cmH2O and 0.3373 mL/cmH2O and 0.3256 mL/cmH2O and 0.3052 mL/cmH2O and 0.2663 mL/cmH2O and 0.1759 mL/cmH2O
  FVC: 11.605 and 10.16 and 11.107 and 11.731 and 11.449 and 11.248 and 11.212 and 9.823 and 10.688
  MT staining for fibrosis: 13.0601 and 19.1932 and 11.5913 and 20.3302 and 12.2482 and 5.166 and 2.8883 and 26.6827 and 9.6738
  Modified Ashcroft Score: 3.08 and 2.5 and 1.92 and 1.58
  RL: 0.2246 cmH2O and 0.2544 cmH2O and 0.2308 cmH2O and 0.2117 cmH2O and 0.1856 cmH2O and 0.1933 cmH2O and 0.2063 cmH2O and 0.2431 cmH2O and 0.3604 cmH2O
Sprague Dawley rats; INS018_055 6 mg/mL
  Cdyn: 0.2872 mL/cmH2O and 0.2596 mL/cmH2O and 0.2974 mL/cmH2O and 0.09892 mL/cmH2O and 0.2655 mL/cmH2O and 0.2689 mL/cmH2O and 0.283 mL/cmH2O and 0.2425 mL/cmH2O and 0.303 mL/cmH2O
  FVC: 10.938 and 9.019 and 10.156 and 12.074 and 10.094 and 10.135 and 10.127 and 8.751 and 10.893
  MT staining for fibrosis: 11.7864 and 15.1925 and 36.9642 and 17.393 and 15.0833 and 12.2135 and 12.9504 and 11.5722 and 12.5986
  Modified Ashcroft Score: 2.25 and 3.08 and 3
  RL: 0.2197 cmH2O and 0.2419 cmH2O and 0.2117 cmH2O and 0.6313 cmH2O and 0.2427 cmH2O and 0.2338 cmH2O and 0.2227 cmH2O and 0.2591 cmH2O and 0.2072 cmH2O
A549 cells; 0.1 μM, Batch 1
  E-Cadherin/GAPDH normalized: 0.882
  N-Cadherin/GAPDH normalized: 0.7004
  Smad2/3/GAPDH normalized: 1.169
  p- Smad2/3/GAPDH normalized: 0.1198
A549 cells; 0.1 μM, Batch 2
  E-Cadherin/GAPDH normalized: 0.7553
  N-Cadherin/GAPDH normalized: 0.5859
  Smad2/3/GAPDH normalized: 1.386
  b-catenin/ HDAC2 normalized: 0.9011
  b-catenin/ Histone 3 normalized: 1.011
  b-catenin/ tubulin normalized: 0.7986
  p- Smad2/3/GAPDH normalized: 0.1997
A549 cells; 0.1 μM, Batch 3
  E-Cadherin/GAPDH normalized: 1.033
  N-Cadherin/GAPDH normalized: 0.3543
  Smad2/3/GAPDH normalized: 0.9832
  b-catenin/ HDAC2 normalized: 0.6944
  b-catenin/ Histone 3 normalized: 1.35
  b-catenin/ tubulin normalized: 1.101
  p- Smad2/3/GAPDH normalized: 0.212
A549 cells; 0.1 μM, Batch 4
  b-catenin/ HDAC2 normalized: 1.905
  b-catenin/ Histone 3 normalized: 0.9078
  b-catenin/ tubulin normalized: 1.377
A549 cells; 0.1 μM, TGF-β group, Batch 1
  P65/GAPDH normalized: 0.4666
  p-P65/GAPDH normalized: 0.1387
A549 cells; 0.1 μM, TGF-β group, Batch 2
  P65/GAPDH normalized: 0.8513
  p-P65/GAPDH normalized: 0.05722
A549 cells; 0.1 μM, TGF-β group, Batch 3
  P65/GAPDH normalized: 0.4658
  p-P65/GAPDH normalized: 0.04967
A549 cells; [1]
  P65/GAPDH normalized: 0.668
  p-P65/GAPDH normalized: 0.6884
A549 cells; [2]
  P65/GAPDH normalized: 0.75
  p-P65/GAPDH normalized: 0.7416
A549 cells; [3]
  P65/GAPDH normalized: 0.4563
  p-P65/GAPDH normalized: 0.5057
A549 cells; 0.3 μM, Batch 1
  E-Cadherin/GAPDH normalized: 1.52
  N-Cadherin/GAPDH normalized: 0.1615
  Smad2/3/GAPDH normalized: 1.047
  p- Smad2/3/GAPDH normalized: 0.03
A549 cells; 0.3 μM, Batch 2
  E-Cadherin/GAPDH normalized: 1.01
  N-Cadherin/GAPDH normalized: 0.2158
  Smad2/3/GAPDH normalized: 1.249
  b-catenin/ HDAC2 normalized: 0.8061
  b-catenin/ Histone 3 normalized: 0.5919
  b-catenin/ tubulin normalized: 0.4991
  p- Smad2/3/GAPDH normalized: 0.1456
A549 cells; 0.3 μM, Batch 3
  E-Cadherin/GAPDH normalized: 0.9712
  N-Cadherin/GAPDH normalized: 0.1387
  Smad2/3/GAPDH normalized: 1.033
  b-catenin/ HDAC2 normalized: 0.9297
  b-catenin/ Histone 3 normalized: 0.5389
  b-catenin/ tubulin normalized: 1.411
  p- Smad2/3/GAPDH normalized: 0.1442
A549 cells; 0.3 μM, Batch 4
  b-catenin/ HDAC2 normalized: 0.672
  b-catenin/ Histone 3 normalized: 0.7931
  b-catenin/ tubulin normalized: 1.498
A549 cells; 0.3 μM, TGF-β group, Batch 1
  P65/GAPDH normalized: 0.4013
  p-P65/GAPDH normalized: 0.07454
